Source: ChEMBL document CHEMBL3885861, “Open TG-GATES”

Species on record: Rattus norvegicus
Assay: Open TG-GATES - Regimen: Single
Assay type: toxicity, organism-based, Sprague-Dawley
Parameters: regimen Single, gender Male, age 6 weeks
Details: in vivo, po, 0 mg/kg, route gavage, dose level Control; for APTT / Bas / Eos / Fbg / Hb / Ht / Lym / MCH / MCHC / MCV / Mono / Neu / PT / Plat / RBC / Ret / WBC: tissue Blood; for KIDNEY_L / KIDNEY_R / KIDNEY_TOTAL: tissue Kidney; for LIVER: tissue Liver; for A/G / ALP / ALT / AST / BUN / CRE / Ca / Cl / DBIL / GLC / IP / K / LDH / Na / PL / RALB / TBIL / TC / TG / TP / gamma-GTP: tissue Plasma

SMILES: COC1=CC(=O)C[C@@H](C)[C@]12Oc1c(Cl)c(OC)cc(OC)c1C2=O [GRISEOFULVIN]
- TERMINAL_BW (3 h): 211.3 g
- APTT (3 h): 21.6 s
- Bas (3 h): 0%
- Eos (3 h): 0.4%
- Fbg (3 h): 224.4 mg/dL
- Hb (3 h): 13.4 g/dL
- Ht (3 h): 39.4%
- Lym (3 h): 76%
- MCH (3 h): 21.7 pg
- MCHC (3 h): 34.1%
- MCV (3 h): 63.5 fL
- Mono (3 h): 3%
- Neu (3 h): 19.6%
- PT (3 h): 12.9 s
- Plat (3 h): 119.6 x10_4/uL
- RBC (3 h): 620.8 x10_4/ul
- Ret (3 h): 7.4%
- WBC (3 h): 103.5 x10_2/uL
- KIDNEY_L (3 h): 1 g
- KIDNEY_R (3 h): 1 g
- KIDNEY_TOTAL (3 h): 1.9 g
- LIVER (3 h): 9.8 g
- A/G (3 h): 1.9
- ALP (3 h): 1043.6 IU/L
- ALT (3 h): 45.2 IU/L
- AST (3 h): 71 IU/L
- BUN (3 h): 10.8 mg/dL
- CRE (3 h): 0.3 mg/dL
- Ca (3 h): 10.8 mg/dL
- Cl (3 h): 104.4 meq/L
- DBIL (3 h): 0.2 mg/dL
- GLC (3 h): 195.4 mg/dL
- IP (3 h): 9.3 mg/dL
- K (3 h): 4 meq/L
- LDH (3 h): 129.8 IU/L
- Na (3 h): 141.4 meq/L
- PL (3 h): 167.6 mg/dL
- RALB (3 h): 3.5 g/dL
- TBIL (3 h): 0.2 mg/dL
- TC (3 h): 85.8 mg/dL
- TG (3 h): 97.4 mg/dL
- TP (3 h): 5.4 g/dL
- gamma-GTP (3 h): 1.4 IU/L
- TERMINAL_BW (6 h): 210.2 g
- APTT (6 h): 18.8 s
- Bas (6 h): 0%
- Eos (6 h): 0.8%
- Fbg (6 h): 231.8 mg/dL
- Hb (6 h): 13.8 g/dL
- Ht (6 h): 41.1%
- Lym (6 h): 79.4%
- MCH (6 h): 20.9 pg
- MCHC (6 h): 33.6%
- MCV (6 h): 62.1 fL
- Mono (6 h): 3.2%
- Neu (6 h): 16%
- PT (6 h): 12.7 s
- Plat (6 h): 132.8 x10_4/uL
- RBC (6 h): 662.4 x10_4/ul
- Ret (6 h): 7.1%
- WBC (6 h): 107.8 x10_2/uL
- KIDNEY_L (6 h): 1 g
- KIDNEY_R (6 h): 1 g
- KIDNEY_TOTAL (6 h): 1.9 g
- LIVER (6 h): 9 g
- A/G (6 h): 1.7
- ALP (6 h): 1097.4 IU/L
- ALT (6 h): 34.6 IU/L
- AST (6 h): 67 IU/L
- BUN (6 h): 8.6 mg/dL
- CRE (6 h): 0.3 mg/dL
- Ca (6 h): 10.7 mg/dL
- Cl (6 h): 103.4 meq/L
- DBIL (6 h): 0.098 mg/dL
- GLC (6 h): 209.6 mg/dL
- IP (6 h): 10 mg/dL
- K (6 h): 3.9 meq/L
- LDH (6 h): 157.4 IU/L
- Na (6 h): 141.4 meq/L
- PL (6 h): 138.8 mg/dL
- RALB (6 h): 3.4 g/dL
- TBIL (6 h): 0.2 mg/dL
- TC (6 h): 73.4 mg/dL
- TG (6 h): 63.2 mg/dL
- TP (6 h): 5.4 g/dL
- gamma-GTP (6 h): 1.2 IU/L
- TERMINAL_BW (9 h): 209.9 g
- APTT (9 h): 18.2 s
- Bas (9 h): 0%
- Eos (9 h): 1%
- Fbg (9 h): 226 mg/dL
- Hb (9 h): 13.5 g/dL
- Ht (9 h): 39.7%
- Lym (9 h): 72.6%
- MCH (9 h): 21.4 pg
- MCHC (9 h): 33.9%
- MCV (9 h): 63.1 fL
- Mono (9 h): 2.4%
- Neu (9 h): 23.8%
- PT (9 h): 12.9 s
- Plat (9 h): 117.6 x10_4/uL
- RBC (9 h): 628.8 x10_4/ul
- Ret (9 h): 7.4%
- WBC (9 h): 73.2 x10_2/uL
- KIDNEY_L (9 h): 0.9 g
- KIDNEY_R (9 h): 0.9 g
- KIDNEY_TOTAL (9 h): 1.9 g
- LIVER (9 h): 8.3 g
- A/G (9 h): 1.7
- ALP (9 h): 1130.6 IU/L
- ALT (9 h): 32.4 IU/L
- AST (9 h): 59.8 IU/L
- BUN (9 h): 11 mg/dL
- CRE (9 h): 0.4 mg/dL
- Ca (9 h): 10.4 mg/dL
- Cl (9 h): 103.6 meq/L
- DBIL (9 h): 0.078 mg/dL
- GLC (9 h): 206 mg/dL
- IP (9 h): 10.1 mg/dL
- K (9 h): 4 meq/L
- LDH (9 h): 100.8 IU/L
- Na (9 h): 141.8 meq/L
- PL (9 h): 148.2 mg/dL
- RALB (9 h): 3.5 g/dL
- TBIL (9 h): 0.1 mg/dL
- TC (9 h): 79.8 mg/dL
- TG (9 h): 41.2 mg/dL
- TP (9 h): 5.5 g/dL
- gamma-GTP (9 h): 1.2 IU/L
- TERMINAL_BW (24 h): 224 g
- APTT (24 h): 18.9 s
- Bas (24 h): 0%
- Eos (24 h): 1%
- Fbg (24 h): 214.4 mg/dL
- Hb (24 h): 13 g/dL
- Ht (24 h): 39.3%
- Lym (24 h): 79.2%
- MCH (24 h): 21.6 pg
- MCHC (24 h): 33%
- MCV (24 h): 65.4 fL
- Mono (24 h): 3%
- Neu (24 h): 16.6%
- PT (24 h): 12.8 s
- Plat (24 h): 111.8 x10_4/uL
- RBC (24 h): 601.4 x10_4/ul
- Ret (24 h): 8%
- WBC (24 h): 72.9 x10_2/uL
- KIDNEY_L (24 h): 1.1 g
- KIDNEY_R (24 h): 1 g
- KIDNEY_TOTAL (24 h): 2.1 g
- LIVER (24 h): 11.1 g
- A/G (24 h): 1.7
- ALP (24 h): 884.4 IU/L
- ALT (24 h): 37.6 IU/L
- AST (24 h): 61.8 IU/L
- BUN (24 h): 16 mg/dL
- CRE (24 h): 0.4 mg/dL
- Ca (24 h): 10.9 mg/dL
- Cl (24 h): 104 meq/L
- DBIL (24 h): 0.1 mg/dL
- GLC (24 h): 208.8 mg/dL
- IP (24 h): 7.5 mg/dL
- K (24 h): 4.2 meq/L
- LDH (24 h): 148.2 IU/L
- Na (24 h): 141.4 meq/L
- PL (24 h): 149 mg/dL
- RALB (24 h): 3.4 g/dL
- TBIL (24 h): 0.2 mg/dL
- TC (24 h): 78 mg/dL
- TG (24 h): 119.8 mg/dL
- TP (24 h): 5.4 g/dL
- gamma-GTP (24 h): 1.2 IU/L
